# Assay results published in patent US9926602B2, “Recurrent gene fusions in prostate cancer” (THE REGENTS OF THE UNIVERSITY OF MICHIGAN, priority 2009, dated 2018).
# System: UBE2L3-KRAS fusion protein
# Test: Western blot of UBE2L3-KRAS fusion protein with or without bortezomib
# Format: cell-based, human
# Protocol: The prostate cancer cell lines DU145 were transfected with siRNA duplex (Dharmacon, Lafayette, Colo., USA) against UBE2L3 (5′-CCACCGAAGATCACATTTA-3′; SEQ ID NO:1), KRAS (5′-GAAGTTATGGAATTCCTTT-3′; SEQ ID NO:2) or the fusion junction (5′-CCGACCAAGGCCTGCTGAA-3′; SEQ ID NO:3) by oligofectamine (Invitrogen). DU145 transfected with non-targeting siRNA and RWPE cells was used as negative control. Post 48 hours transfection, cells were homogenized in NP40 lysis buffer (50 mM Tris-HCl, 1% NP40, pH 7.4, Sigma, St. Louis, Mo.), and complete proteinase inhibitor mixture (Roche, Indianapolis, Ind.). Ten micrograms of each protein extract were boiled in sample buffer, separated by SDS-PAGE, and transferred onto Polyvinylidene Difluoride membrane (GE Healthcare, Piscataway, N.J.). The membrane was incubated for one hour in blocking buffer [Tris-buffered saline, 0.1% Tween (TBS-T), 5% nonfat dry milk] and incubated overnight at 4° C. with the following antibodies: anti-RAS mouse monoclonal (1:1000 in blocking buffer, Millipore Cat #: 05-516), anti-KRAS rabbit polyclonal (1:1000, Proteintech Group Inc., Cat #: 12063-1-AP) and anti-beta Actin mouse monoclonal (1:5000, Sigma Cat #: A5441) antibodies. Following three washes with TBS-T, the blot was incubated with horseradish peroxidase-conjugated secondary antibody and the signals visualized by enhanced chemiluminescence system as described by the manufacturer (GE Healthcare). To test fusion protein expression in multiple prostate derived cell lines, lysates from DU145, PrEC, RWPE, 22RV1, VCaP, PC3 either untreated or treated with 500 nM bortezomib for 12 hours were used. Bortezomib treated HEK cells over-expressing UBE2L3-KRAS fusion protein was used as a positive control. […] For ERK activation analysis NIH 3T3 cells were starved for 12 hours before immunoblot analysis using phospho erk1/2 antibody. All antibodies for the MAPK signaling proteins were purchased from Cell Signaling Technologies.
compound,measurement,setting,value
CC(C)C[C@H](NC(=O)[C@H](Cc1ccccc1)NC(=O)c1cnccn1)B(O)O [bortezomib],levels of UBE2L3-KRAS protein expression,DU145 cells incubated with bortezomib,enhanced
same,expression of the UBE2L3-KRAS fusion protein,"HEK293 cells over-expressing UBE2L3-KRAS construct, in the presence of bortezomib",clearly apparent
same,expression of the UBE2L3-KRAS fusion protein,RWPE cells overexpressing UBE2L3-KRAS,required
